The results in this text go back to ChEMBL document CHEMBL4385643, “Design of a brain-penetrant CDK4/6 inhibitor for glioblastoma” (Bioorg Med Chem Lett, 2019).

Experiment [1] has as its target Activin receptor type-2B (Homo sapiens) (UniProt Q13705). As to the kind of experiment: Inhibition of tracer 178 binding to recombinant human GST-tagged ACVR2B catalytic domain (185 to 488 residues) expressed in baculovirus at 0.1 uM measured after 60 mins by Lanthascreen assay.
Experiment [2] concerns the target RAC-alpha serine/threonine-protein kinase (Homo sapiens) (UniProt P31749). As to the kind of experiment: Inhibition of recombinant full length human His-tagged AKT1 expressed in baculovirus expression system at 0.1 uM using serine/threonine-06 peptide as substrate incubated for 60 mins by Z'-LYTE assay relative to control.
For experiment [3], the target named is Mitogen-activated protein kinase kinase kinase 5 (Homo sapiens) (UniProt Q99683). In words: Inhibition of tracer 236 binding to recombinant full length human GST-tagged ASK1 expressed in baculovirus expression system at 0.1 uM measured after 60 mins by Lanthascreen assay relative to control.
Experiment [4] deals with Aurora kinase A (Homo sapiens) (UniProt O14965). As to the kind of experiment: Inhibition of recombinant full length human His-tagged Aurora A expressed in baculovirus expression system at 0.1 uM using serine/threonine-1 peptide as substrate incubated for 60 mins by Z'-LYTE assay relative to control.
Experiment [5] has as its target Casein kinase I isoform delta (Homo sapiens) (UniProt P48730). In words: Inhibition of recombinant full length human GST-tagged CK1delta expressed in baculovirus expression system at 0.1 uM using serine/threonine-11 peptide as substrate incubated for 60 mins by Z'-LYTE assay relative to control.
Experiment [6] deals with Dual specificity protein kinase CLK3 (Homo sapiens) (UniProt P49761). In words: Inhibition of recombinant full length human GST-tagged CLK3 expressed in Baculovirus expression system at 0.1 uM using serine/threonine-18 peptide as substrate incubated for 60 mins by Z'-LYTE assay relative to control.
The target of experiment [7] is Dual specificity protein kinase CLK4 (Homo sapiens) (UniProt Q9HAZ1). In words: Inhibition of tracer 236 binding to recombinant full length human GST-tagged CLK4 expressed in baculovirus expression system at 0.1 uM measured after 60 mins by Lanthascreen assay relative to control.
For experiment [8], the target named is Calcium/calmodulin-dependent protein kinase type II subunit beta (Homo sapiens) (UniProt Q13554). As to the kind of experiment: Inhibition of recombinant full length human His-tagged CAMK2beta expressed in baculovirus expression system at 0.1 uM using serine/threonine-17 peptide as substrate incubated for 60 mins by Z'-LYTE assay relative to control.
Experiment [9] deals with Serine/threonine-protein kinase DCLK2 (Homo sapiens) (UniProt Q8N568). In words: Inhibition of recombinant full length human GST-tagged DCAMKL2 expressed in baculovirus expression system at 0.1 uM using serine/threonine-17 peptide as substrate incubated for 60 mins by Z'-LYTE assay relative to control.
The target in experiment [10] is Ephrin type-A receptor 3 (Homo sapiens) (UniProt P29320). In words: Inhibition of tracer 236 binding to recombinant human His-tagged EPHA3 (569 to 976 residues) expressed in baculovirus expression system at 0.1 uM measured after 60 mins by Lanthascreen assay relative to control. A general note: In TR-FRET formats the signal depends on donor and acceptor labels being close together.

Experiment [11] deals with Ephrin type-B receptor 3 (Homo sapiens) (UniProt P54753). As to the kind of experiment: Inhibition of recombinant human GST-tagged EPHB3 catalytic domain (623 to 907 residues) expressed in baculovirus expression system at 0.1 uM using tyrosine-2 peptide as substrate incubated for 60 mins by Z'-LYTE assay relative to control.
The target in experiment [12] is Fibroblast growth factor receptor 3 (Homo sapiens) (UniProt P22607). In words: Inhibition of recombinant human His-tagged FGFR3 catalytic domain (399 to 806 residues) expressed in baculovirus expression system at 0.1 uM using tyrosine-4 peptide as substrate incubated for 60 mins by Z'-LYTE assay relative to control.
In experiment [13] the target is Receptor-type tyrosine-protein kinase FLT3 (Homo sapiens) (UniProt P36888). As to the kind of experiment: Inhibition of recombinant human His-tagged FLT3 catalytic domain (564 to 958 residues) expressed in baculovirus expression system at 0.1 uM using tyrosine-2 peptide as substrate incubated for 60 mins by Z'-LYTE assay relative to control.
Experiment [14] addresses Insulin receptor-related protein (Homo sapiens) (UniProt P14616). In words: Inhibition of recombinant human GST-tagged IRR (944 to 1297 residues) expressed in baculovirus expression system at 0.1 uM using tyrosine-4 peptide as substrate incubated for 60 mins by Z'-LYTE assay relative to control.
Experiment [15] has as its target Dual specificity mitogen-activated protein kinase kinase 1 (Homo sapiens) (UniProt Q02750). As to the kind of experiment: Inhibition of recombinant full length human His-tagged MEK1 expressed in baculovirus expression system at 0.1 uM using serine/threonine-3 peptide as substrate incubated for 60 mins by Z'-LYTE assay relative to control.
Experiment [16] has as its target MAP kinase-interacting serine/threonine-protein kinase 1 (Homo sapiens) (UniProt Q9BUB5). In words: Inhibition of recombinant full length human GST-tagged MKNK1 expressed in insect expression system at 0.1 uM using serine/threonine-7 peptide as substrate incubated for 60 mins by Z'-LYTE assay relative to control.
Experiment [17] addresses Serine/threonine-protein kinase 3 (Homo sapiens) (UniProt Q13188). As to the kind of experiment: Inhibition of recombinant full length human GST-tagged MST2 expressed in baculovirus expression system at 0.1 uM using serine/threonine-7 peptide as substrate incubated for 60 mins by Z'-LYTE assay relative to control.
In experiment [18] the target is Phosphatidylinositol 4,5-bisphosphate 3-kinase catalytic subunit gamma isoform (Homo sapiens) (UniProt P48736). As to the kind of experiment: Inhibition of recombinant human GST-tagged PI3Kgamma catalytic domain (468 to 1203 residues) expressed in insect expression system at 0.1 uM using PI Lipid Kinase as substrate incubated for 60 mins by Adapta assay relative to control.

For experiment [19], the target named is Phosphorylase b kinase gamma catalytic chain, liver/testis isoform (Homo sapiens) (UniProt P15735). In words: Inhibition of recombinant full length human GST-tagged PHKG2 expressed in baculovirus expression system at 0.1 uM using serine/threonine-7 peptide as substrate incubated for 60 mins by Z'-LYTE assay relative to control.
In experiment [20] the target is Serine/threonine-protein kinase Sgk2 (Homo sapiens) (UniProt Q9HBY8). In words: Inhibition of recombinant human GST-tagged SGK2 catalytic domain (54 to 427 residues) expressed in baculovirus expression system at 0.1 uM using serine/threonine-6 peptide as substrate incubated for 60 mins by Z'-LYTE assay relative to control.
For experiment [21], the target named is Serine/threonine-protein kinase 16 (Homo sapiens) (UniProt O75716). As to the kind of experiment: Inhibition of tracer 236 binding to recombinant full length human His-tagged STK16 expressed in baculovirus expression system at 0.1 uM measured after 60 mins by Lanthascreen assay relative to control.
In experiment [22] the target is Tyrosine-protein kinase SYK (Homo sapiens) (UniProt P43405). As to the kind of experiment: Inhibition of recombinant full length human GST-tagged SYK expressed in baculovirus expression system at 0.1 uM using tyrosine-2 peptide as substrate incubated for 60 mins by Z'-LYTE assay relative to control.
Experiment [23] addresses Mitogen-activated protein kinase 12 (Homo sapiens) (UniProt P53778). In words: Inhibition of recombinant full length human His-tagged p38gamma expressed in baculovirus expression system at 0.1 uM using serine/threonine-3 peptide as substrate incubated for 60 mins by Z'-LYTE assay relative to control.

Sequence of Aurora kinase A (Homo sapiens) (O14965 whole entry, canonical isoform): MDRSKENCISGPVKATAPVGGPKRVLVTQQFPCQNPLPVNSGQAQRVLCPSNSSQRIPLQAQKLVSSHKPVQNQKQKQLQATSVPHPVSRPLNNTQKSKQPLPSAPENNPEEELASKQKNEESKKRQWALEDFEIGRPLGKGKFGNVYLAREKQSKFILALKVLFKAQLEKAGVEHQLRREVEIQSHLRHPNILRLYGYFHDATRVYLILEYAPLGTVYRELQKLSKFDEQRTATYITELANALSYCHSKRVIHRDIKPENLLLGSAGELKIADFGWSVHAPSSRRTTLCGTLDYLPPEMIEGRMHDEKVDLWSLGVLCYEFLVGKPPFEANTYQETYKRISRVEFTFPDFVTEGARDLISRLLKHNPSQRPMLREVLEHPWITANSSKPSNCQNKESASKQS
Sequence of Insulin receptor-related protein (Homo sapiens) (P14616 27-742 limits assumed): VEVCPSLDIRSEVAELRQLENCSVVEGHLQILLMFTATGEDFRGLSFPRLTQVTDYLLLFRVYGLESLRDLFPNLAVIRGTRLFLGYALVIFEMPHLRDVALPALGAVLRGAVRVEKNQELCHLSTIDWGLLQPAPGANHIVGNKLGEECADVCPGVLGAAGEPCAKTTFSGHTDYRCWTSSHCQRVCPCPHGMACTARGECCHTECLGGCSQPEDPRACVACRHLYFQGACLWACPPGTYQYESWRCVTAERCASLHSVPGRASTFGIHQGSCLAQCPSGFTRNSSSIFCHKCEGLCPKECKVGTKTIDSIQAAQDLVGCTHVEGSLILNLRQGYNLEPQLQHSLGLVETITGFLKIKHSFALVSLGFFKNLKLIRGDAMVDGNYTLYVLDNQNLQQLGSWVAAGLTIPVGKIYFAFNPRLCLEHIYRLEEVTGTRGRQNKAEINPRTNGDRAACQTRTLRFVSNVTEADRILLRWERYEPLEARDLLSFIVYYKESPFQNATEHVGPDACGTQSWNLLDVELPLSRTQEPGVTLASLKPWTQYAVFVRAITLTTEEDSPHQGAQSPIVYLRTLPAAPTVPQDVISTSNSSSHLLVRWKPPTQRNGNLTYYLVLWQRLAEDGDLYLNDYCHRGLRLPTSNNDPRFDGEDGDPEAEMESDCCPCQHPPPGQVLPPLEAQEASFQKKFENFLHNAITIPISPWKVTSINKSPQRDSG
Sequence of Insulin receptor-related protein (Homo sapiens) (P14616 747-1297 limits assumed): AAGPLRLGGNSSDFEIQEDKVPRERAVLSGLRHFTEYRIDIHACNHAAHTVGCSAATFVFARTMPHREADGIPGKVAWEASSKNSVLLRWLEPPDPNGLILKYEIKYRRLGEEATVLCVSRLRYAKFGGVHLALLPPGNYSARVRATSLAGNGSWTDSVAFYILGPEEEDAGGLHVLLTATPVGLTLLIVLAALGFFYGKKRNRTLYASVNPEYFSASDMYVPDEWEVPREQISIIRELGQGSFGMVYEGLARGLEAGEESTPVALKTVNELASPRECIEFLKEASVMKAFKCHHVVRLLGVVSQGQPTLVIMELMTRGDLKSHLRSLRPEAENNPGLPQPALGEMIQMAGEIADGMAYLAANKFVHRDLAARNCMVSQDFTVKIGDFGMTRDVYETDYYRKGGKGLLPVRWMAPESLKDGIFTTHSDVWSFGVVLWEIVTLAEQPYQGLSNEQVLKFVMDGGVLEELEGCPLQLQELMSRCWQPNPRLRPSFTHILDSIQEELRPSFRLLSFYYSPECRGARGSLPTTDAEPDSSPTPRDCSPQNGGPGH
Sequence of Ephrin type-A receptor 3 (Homo sapiens) (P29320 whole entry, the tested form may be a part): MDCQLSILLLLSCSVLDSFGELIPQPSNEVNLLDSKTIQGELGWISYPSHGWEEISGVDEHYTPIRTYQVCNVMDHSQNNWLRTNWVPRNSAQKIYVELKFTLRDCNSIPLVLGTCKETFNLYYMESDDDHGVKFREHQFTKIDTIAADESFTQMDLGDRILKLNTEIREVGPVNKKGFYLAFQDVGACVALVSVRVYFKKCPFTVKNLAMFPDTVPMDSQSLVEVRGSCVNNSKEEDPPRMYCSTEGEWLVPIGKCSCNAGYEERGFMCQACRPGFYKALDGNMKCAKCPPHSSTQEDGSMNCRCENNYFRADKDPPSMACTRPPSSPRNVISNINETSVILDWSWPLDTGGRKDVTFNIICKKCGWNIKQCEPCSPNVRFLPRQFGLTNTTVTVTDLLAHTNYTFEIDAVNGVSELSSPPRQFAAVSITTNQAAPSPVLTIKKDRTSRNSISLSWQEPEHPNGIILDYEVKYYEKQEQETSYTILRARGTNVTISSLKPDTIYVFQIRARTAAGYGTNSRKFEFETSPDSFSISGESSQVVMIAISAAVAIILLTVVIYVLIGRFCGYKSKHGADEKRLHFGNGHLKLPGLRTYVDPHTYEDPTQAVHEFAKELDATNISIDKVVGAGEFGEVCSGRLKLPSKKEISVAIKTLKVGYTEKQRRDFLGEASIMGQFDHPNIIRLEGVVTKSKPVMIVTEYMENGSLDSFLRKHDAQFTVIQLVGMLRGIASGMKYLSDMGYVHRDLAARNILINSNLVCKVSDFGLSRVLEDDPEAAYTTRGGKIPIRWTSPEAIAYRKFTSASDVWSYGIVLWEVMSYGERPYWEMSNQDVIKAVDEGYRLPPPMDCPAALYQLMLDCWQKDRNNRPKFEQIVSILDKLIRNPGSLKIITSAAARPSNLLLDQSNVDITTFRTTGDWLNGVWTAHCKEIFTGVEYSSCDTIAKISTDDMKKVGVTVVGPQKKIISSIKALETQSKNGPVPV
Sequence of Ephrin type-B receptor 3 (Homo sapiens) (P54753 whole entry, the tested form may be a part): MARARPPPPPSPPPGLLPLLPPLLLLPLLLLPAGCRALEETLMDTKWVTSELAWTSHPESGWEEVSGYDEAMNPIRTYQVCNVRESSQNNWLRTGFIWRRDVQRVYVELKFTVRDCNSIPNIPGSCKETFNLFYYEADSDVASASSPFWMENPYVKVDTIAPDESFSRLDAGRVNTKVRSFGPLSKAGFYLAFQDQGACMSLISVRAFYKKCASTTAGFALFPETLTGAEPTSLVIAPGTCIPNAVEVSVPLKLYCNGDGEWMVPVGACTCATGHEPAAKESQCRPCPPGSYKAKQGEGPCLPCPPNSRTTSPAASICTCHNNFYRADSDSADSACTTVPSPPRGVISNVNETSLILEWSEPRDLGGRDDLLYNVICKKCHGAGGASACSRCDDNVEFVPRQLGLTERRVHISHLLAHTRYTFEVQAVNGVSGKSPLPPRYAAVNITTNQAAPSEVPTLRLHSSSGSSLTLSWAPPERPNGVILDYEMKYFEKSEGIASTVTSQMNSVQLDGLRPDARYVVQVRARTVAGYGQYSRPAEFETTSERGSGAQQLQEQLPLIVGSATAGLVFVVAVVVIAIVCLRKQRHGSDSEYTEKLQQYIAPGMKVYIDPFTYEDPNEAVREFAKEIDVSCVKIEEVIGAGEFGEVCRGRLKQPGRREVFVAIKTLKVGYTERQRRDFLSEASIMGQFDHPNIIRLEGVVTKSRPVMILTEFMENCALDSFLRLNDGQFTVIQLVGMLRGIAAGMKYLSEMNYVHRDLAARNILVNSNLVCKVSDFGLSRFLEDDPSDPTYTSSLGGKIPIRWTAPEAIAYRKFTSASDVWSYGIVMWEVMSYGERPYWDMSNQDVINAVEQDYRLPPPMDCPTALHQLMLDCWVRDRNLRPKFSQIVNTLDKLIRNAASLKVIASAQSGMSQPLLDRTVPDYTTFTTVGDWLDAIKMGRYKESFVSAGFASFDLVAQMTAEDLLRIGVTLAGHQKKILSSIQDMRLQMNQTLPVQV
Sequence of Dual specificity protein kinase CLK3 (Homo sapiens) (P49761 whole entry, looked up): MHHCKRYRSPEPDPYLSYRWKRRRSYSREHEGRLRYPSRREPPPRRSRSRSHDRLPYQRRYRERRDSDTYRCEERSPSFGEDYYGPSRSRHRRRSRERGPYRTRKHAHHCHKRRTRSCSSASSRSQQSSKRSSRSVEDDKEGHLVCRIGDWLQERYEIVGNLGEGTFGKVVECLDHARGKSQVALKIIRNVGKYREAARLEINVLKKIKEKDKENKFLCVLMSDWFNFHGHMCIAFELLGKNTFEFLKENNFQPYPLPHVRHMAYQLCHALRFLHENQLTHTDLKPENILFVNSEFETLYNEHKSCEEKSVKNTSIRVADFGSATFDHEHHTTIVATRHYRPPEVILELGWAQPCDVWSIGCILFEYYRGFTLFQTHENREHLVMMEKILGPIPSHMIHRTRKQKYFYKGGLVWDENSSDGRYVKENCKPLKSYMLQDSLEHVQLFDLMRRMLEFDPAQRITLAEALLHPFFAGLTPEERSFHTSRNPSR
Sequence of Dual specificity protein kinase CLK4 (Homo sapiens) (Q9HAZ1 whole entry, looked up): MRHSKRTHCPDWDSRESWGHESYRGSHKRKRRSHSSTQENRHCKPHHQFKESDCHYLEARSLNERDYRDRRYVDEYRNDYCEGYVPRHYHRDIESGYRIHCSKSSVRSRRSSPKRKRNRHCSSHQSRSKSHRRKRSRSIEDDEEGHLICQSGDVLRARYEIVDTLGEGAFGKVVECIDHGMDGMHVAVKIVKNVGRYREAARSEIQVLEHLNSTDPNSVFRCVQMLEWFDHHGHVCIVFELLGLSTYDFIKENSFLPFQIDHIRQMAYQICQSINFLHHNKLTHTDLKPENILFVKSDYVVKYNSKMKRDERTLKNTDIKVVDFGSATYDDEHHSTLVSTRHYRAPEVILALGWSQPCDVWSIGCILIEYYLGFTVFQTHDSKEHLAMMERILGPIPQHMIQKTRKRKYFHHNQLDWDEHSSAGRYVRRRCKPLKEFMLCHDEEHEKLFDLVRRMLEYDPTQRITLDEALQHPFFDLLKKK
Sequence of Phosphorylase b kinase gamma catalytic chain, liver/testis isoform (Homo sapiens) (P15735 whole entry, the tested form may be a part, canonical isoform): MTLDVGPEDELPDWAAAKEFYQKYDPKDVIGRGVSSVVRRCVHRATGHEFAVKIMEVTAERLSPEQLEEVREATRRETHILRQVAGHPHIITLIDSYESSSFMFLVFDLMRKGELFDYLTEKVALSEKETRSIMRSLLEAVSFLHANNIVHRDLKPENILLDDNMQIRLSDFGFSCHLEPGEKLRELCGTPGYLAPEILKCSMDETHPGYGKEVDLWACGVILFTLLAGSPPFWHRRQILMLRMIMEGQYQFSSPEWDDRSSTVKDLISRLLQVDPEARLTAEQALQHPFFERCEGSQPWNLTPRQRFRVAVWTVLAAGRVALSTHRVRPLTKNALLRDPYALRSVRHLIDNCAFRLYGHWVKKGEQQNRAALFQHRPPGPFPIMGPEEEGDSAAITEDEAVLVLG

Usually inhibition stands for the relative decrease from the control value, in per cent. Turning to `CCN1CCN(Cc2ccc(Nc3ncc(F)c(-c4cc(F)c5nc(C)n(C(C)C)c5c4)n3)nc2)CC1` [ABEMACICLIB], the inhibition in experiment [1] turned out to be 5.4%; in [2] it was 6.5%; in experiment [3], 4.3%; in [4], 9.5%; in experiment [5], 10.5%; in [6], 6.5%. Besides, the inhibition is 97.7% in [7]; 88% in [8]; 9.5% in experiment [9]; 2.1% in experiment [10]; -0.5% in experiment [11]; 0% in [12]. The inhibition is 35.5% in experiment [13]; 6% in [14]; 4.7% in experiment [15]; 27% in experiment [16]; 13% in [17]; -6.3% in [18]. For the same compound, the inhibition in [19] was determined as 7%; in [20] it was 36.5%; in experiment [21] it was 91.5%; in experiment [22], 6%; in [23], 5%.
Turning to `CCN1CC2(C1)CN(c1ccc(Nc3ncc(F)c(-c4cnn5c4[C@H](C)CCCC5)n3)nc1)C2`, the inhibition was determined as 4.5% in experiment [1]; 2% in experiment [2]; 7% in experiment [3]; 12% in experiment [4]; 5% in experiment [5]; 4% in experiment [6]. In addition, the inhibition in experiment [7] came to 95%; in [8], 20.5%; in [9] it was 20.5%; in experiment [10], 6.5%; in experiment [11], 1%; in experiment [12] it was 1.5%. In addition, the inhibition in experiment [13] turned out to be 59%; in [14] it was 1%; in [15], 20.5%; in experiment [16], 18%; in experiment [17], 4%; in [18] it was 2%. The inhibition was 23% in experiment [19]; 27.5% in [20]; 29.5% in experiment [21]; -3% in experiment [22]; 16% in [23].
